The record followed here is patent US20240384268A1, “Oligonucleotides” (Hudson Institute of Medical Research, priority 2021, published 2024).

The target of one data set is T1, TLR2/1 (Mus musculus, UniProt Q9EPQ1+Q9QUN7).
T1 construct: endogenous in cells; host or cells: immortalised wild-type mouse BMDMs
The experiment in a line: PAM3CSK4-driven TNF-α in immortalised mouse BMDMs. The class given is cell-based. Particulars: iBMDMs; 500 nM ASO 6 h; PAM3C 100 ng/ml.

In another data set the test system is TLR4. The experiment in a line: LPS-driven IP-10 in MG-63 cells and immortalised mouse BMDMs. The class given is cell-based, human. Particulars: 500 nM ASO 6 h; LPS 1 μg/ml overnight.
For data set [1], the target named is T2, cGAS (Homo sapiens, UniProt Q8N884). The experiment in a line: ISD70-driven IP-10 production in MG-63 cells. The class given is cell-based. Details: endogenous in cells. Particulars: C2-Mut1 500 nM 6 h, or ASO847 series ~30 min, ISD70 overnight.
Data set [2] concerns the target T2, cGAS. The experiment in a line: ISD70-driven IP-10 production in HT-29 cells, ELISA. The class given is cell-based. On the set-up: endogenous in cells. The conditions noted are these: ISD70 24 h. The protocol:
In such examples, inhibition of cGAS activity can be identified by observation of an overall decreased cGAS response of the cell population, or a lower proportion of cells having cGAS-positive activity as compared to positive control condition in which cells are treated with cGAS agonist in the absence of the oligonucleotide (or in the presence of an appropriate control inhibitory agent). In one example, THP-1 or HT-29 cells are transfected with ISD70 and incubated with an oligonucleotide. cGAS activity can then be determined by cytokine (e.g., IP-10 and/or IFNβ) expression (e.g., gene and/or protein expression) and/or secretion levels, such as by ELISA. A similar assay can be performed with LL171 cells transfected with ISD45. […] By way of example, cGAS enzymatic activity may be assessed in vitro using recombinant cGAS and then measuring activity thereof by way of a cGAMP ELISA.
For cGAS stimulations, cells were treated for indicated duration with ASOs, prior to transfection with ISD70 (human cells) or ISD45 (mouse cells) (the ASOs were not washed off prior to ISD transfection unless otherwise indicated). The cGAS ligands ISD45 (Stetson and Medzhitov, 2006) and ISD70 (also known as VACV-70 (Unterholzner et al., 2010)) (Table 1) were resuspended as follows: 5 1d of sense and 5 μl of antisense strands at 10 μg/μl were added to 90 μl PBS under sterile conditions, heated at 75° C. for 30 min, prior to letting cool down at room temperature and aliquoting (stock at 1 μg/1 l). The ISDs were transfected at a concentration of […] at a ratio of 1 μg:1 μl with Lipofectamine 2000 in Opti-MEM (Thermo Fisher Scientific). HEK-TLR3, HEK-TLR7 and […] were treated with indicated concentration of ASOs for 20-50 min, prior to stimulation with poly(I:C) (Invivogen), R848 (Invivogen), Motolimod (MedChemExpress) and the Class B CpG oligonucleotides ODN 2006 (synthesised by IDT and resuspended in RNase-free TE buffer [Table 1]), respectively. The TLR2/1 agonist PAM3CSK4 (Invivogen), the TLR4 agonist lipopolysaccharide (Invivogen), the Class B CpG oligonucleotides ODN 1826 (synthesised by IDT and resuspended in RNase-free TE buffer), the mouse Sting agonist DMXAA (Cayman) and the human STING agonist (compound #3 from (Raanjulu et al., 2018), referred to as GSK herein—kind gift from Cancer Therapeutics CRC, Australia) were used at indicated concentrations. Aspirin (Sigma—A2093) was resuspended in pure medium to 10 mM, filter sterilised and added to the cells at 2 mM final. All ASOs were synthesised by Integrated DNA Technologies (IDT), and resuspended in RNase-free TE buffer, pH 8.0 (Thermo Fisher Scientific). Cell viability was assessed by adding 1× fresh resazurin solution to the wells (10λ solution made up with 7 mg resazurin [Sigma—R7017] dissolved in 3.5 ml PBS, sterile filtered at […]) for 4 h, prior to reading at with a Fluostar OPTIMA (BMG LABTECH) plate-reader (fluorescence: Excitation 535 nm, Emission 590); wells with medium only and 1× resazurin were used as blanks.
Human IP-10 and IFN-β levels were measured using supernatants from the different cultures and were quantified using IP-10 (BD Biosciences, #550926) or IFN-β (PBL assay science, #41415-1) ELISA kits respectively, according to the manufacturers' protocol. Tetramethylbenzidine substrate (Thermo Fisher Scientific) was used for quantification of the cytokines on a Fluostar OPTIMA (BMG LABTECH) plate-reader.
On the technique in general: An ELISA detects its analyte on a solid surface through an enzyme-linked reagent.

Data set [3] has as its target cGAS (Mus musculus, UniProt Q8C6L5). The experiment in a line: ISD-driven IP-10 production in immortalised mouse BMDMs. Type of data set: cell-based. Details: endogenous in cells; host or cells: immortalised wild-type mouse bone marrow macrophages (iBMDMs). Particulars: iBMDMs; 500 nM ASO; ISD overnight.

In the oligonucleotide strings, read from the 5' end, every base follows the letter of its sugar. An asterisk marks phosphorothioate; unmarked linkages are phosphodiester. Other units and linkages are bracketed, terminal groups are in braces. A string of capitals states the bases alone. d = 2'-deoxy (DNA); m = 2'-O-methyl

T2 sequence (Q8N884 whole entry): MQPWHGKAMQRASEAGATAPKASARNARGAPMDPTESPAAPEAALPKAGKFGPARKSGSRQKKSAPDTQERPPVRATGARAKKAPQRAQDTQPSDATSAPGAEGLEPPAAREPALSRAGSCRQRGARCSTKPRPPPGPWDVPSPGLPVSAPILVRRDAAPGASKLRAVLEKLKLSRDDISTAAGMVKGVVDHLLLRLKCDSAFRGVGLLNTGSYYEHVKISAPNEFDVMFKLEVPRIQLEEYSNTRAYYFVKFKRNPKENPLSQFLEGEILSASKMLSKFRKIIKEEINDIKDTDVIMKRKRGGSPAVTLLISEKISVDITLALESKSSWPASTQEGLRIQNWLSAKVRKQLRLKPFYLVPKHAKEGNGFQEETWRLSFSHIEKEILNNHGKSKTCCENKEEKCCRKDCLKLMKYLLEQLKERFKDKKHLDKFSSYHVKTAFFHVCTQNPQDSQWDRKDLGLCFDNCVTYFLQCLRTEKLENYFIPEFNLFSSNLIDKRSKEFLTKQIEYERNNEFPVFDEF
T1 sequence (Q9QUN7 25-784): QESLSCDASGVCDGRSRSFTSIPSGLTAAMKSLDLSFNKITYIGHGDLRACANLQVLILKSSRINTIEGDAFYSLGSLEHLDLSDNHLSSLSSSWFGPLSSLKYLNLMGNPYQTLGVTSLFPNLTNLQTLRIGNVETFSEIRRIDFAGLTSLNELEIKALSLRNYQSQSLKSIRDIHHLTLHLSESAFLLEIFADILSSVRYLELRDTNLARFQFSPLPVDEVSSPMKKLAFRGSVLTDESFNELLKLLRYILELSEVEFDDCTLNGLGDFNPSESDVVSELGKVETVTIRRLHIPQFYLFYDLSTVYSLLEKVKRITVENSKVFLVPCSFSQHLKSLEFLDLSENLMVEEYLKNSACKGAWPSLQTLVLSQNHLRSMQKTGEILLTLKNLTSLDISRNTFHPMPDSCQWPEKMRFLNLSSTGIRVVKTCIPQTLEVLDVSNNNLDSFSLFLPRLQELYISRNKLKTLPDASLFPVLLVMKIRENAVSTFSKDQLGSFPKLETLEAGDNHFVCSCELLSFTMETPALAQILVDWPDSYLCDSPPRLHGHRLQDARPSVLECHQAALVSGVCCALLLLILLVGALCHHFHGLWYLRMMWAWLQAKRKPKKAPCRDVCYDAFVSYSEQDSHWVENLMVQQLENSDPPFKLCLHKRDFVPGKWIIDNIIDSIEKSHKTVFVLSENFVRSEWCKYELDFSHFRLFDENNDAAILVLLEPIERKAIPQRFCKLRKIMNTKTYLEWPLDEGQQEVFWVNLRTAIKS
T1 sequence (Q9EPQ1 26-795): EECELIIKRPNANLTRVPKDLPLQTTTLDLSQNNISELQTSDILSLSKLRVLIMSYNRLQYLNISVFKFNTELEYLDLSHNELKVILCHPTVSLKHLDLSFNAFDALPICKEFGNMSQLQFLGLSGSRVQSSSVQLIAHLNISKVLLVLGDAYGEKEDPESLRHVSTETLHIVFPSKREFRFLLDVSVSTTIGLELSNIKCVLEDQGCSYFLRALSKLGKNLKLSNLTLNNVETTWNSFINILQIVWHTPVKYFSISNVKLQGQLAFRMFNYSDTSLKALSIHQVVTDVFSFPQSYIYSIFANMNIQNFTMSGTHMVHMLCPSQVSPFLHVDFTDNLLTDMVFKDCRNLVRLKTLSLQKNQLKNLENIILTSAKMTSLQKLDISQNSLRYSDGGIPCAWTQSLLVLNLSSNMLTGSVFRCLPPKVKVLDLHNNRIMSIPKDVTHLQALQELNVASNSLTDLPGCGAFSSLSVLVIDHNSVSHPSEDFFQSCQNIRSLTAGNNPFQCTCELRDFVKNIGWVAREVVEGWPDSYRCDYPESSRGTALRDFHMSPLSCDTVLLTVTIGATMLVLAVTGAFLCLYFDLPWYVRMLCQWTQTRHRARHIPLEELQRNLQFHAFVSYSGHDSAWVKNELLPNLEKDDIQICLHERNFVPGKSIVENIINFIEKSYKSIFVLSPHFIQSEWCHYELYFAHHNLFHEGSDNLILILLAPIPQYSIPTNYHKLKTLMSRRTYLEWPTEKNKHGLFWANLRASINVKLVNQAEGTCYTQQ
cGAS (Mus musculus, UniProt Q8C6L5), sequence (Q8C6L5 whole entry): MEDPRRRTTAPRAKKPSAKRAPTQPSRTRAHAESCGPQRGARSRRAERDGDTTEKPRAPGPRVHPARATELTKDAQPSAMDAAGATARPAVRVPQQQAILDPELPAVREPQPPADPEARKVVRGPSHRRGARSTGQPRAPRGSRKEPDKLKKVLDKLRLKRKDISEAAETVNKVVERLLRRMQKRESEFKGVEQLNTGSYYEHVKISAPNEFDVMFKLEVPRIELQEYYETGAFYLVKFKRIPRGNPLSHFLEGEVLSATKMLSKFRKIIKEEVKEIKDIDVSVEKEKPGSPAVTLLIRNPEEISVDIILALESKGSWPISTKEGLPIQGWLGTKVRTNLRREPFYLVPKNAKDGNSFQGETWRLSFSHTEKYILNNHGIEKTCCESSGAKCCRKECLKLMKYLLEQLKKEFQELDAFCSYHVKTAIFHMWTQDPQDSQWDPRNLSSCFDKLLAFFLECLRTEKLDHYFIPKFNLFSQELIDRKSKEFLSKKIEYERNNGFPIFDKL

Consider “mG*mC*mG*mG*mU*A*T*C*C*A*T*G*T*C*C*mC*mA*mG*mG*mC (mG*mC*mG*mG*mU*dA*dT*dC*dC*dA*dT*dG*dT*dC*dC*mC*mA*mG*mG*mC; antisense) [C2-Mut1]”, for which the “TNF-α production upon PAM3CSK4 (in words)” value in the data set with TLR2/1 is listed as “did not impact production of TNF-α”. For the same substance, in the data set on TLR4, the “IP-10 production driven by LPS (in words)” value was “did not significantly affect IP-10 production”. In addition, in the data set with cGAS [1], the “inhibition of ISD sensing in MG-63, 2′OMe ASOs (in words)” value is given as “significantly impacting ISD sensing”. In addition, the “inhibition of ISD70-dependent IP-10 production (in words)” value with cGAS [2] (187.5 nM ASO overnight) was “most inhibitory sequence of ISD70 sensing”. Moreover, the “effect on ISD70-induced IP-10 production at low dose (in words)” value with cGAS [2] (ASO overnight at 125 nM (62.5-125 nM)) is reported as “increased inhibitory activity”. The “ISD-induced IP-10 in immortalised mouse BMDMs (in words)” value with cGAS [3] was “significantly impacting ISD sensing”.
